Results from patent publication US12404295B2, “(Hetero)aryl-methyl-thio-beta-D-galactopyranoside derivatives” (Idorsia Pharmaceuticals Ltd, priority 2019, dated 2025).
Read-outs that look alike come from different tables or passages of the source.

Columns and labels:
[1] = target: human Gal-3 (hGal-3) (Homo sapiens (Human), UniProt P17931); assay: competitive binding assay: biotinylated hGal-3 binding to microplate-adsorbed asialofetuin (ASF); conditions: read-out: IC50 (Gal-3 inhibition)
How it was run: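 Serially diluted compounds compete with biotinylated hGal-3 binding to adsorbed asialofetuin (3 hours, 4° C). After washing, streptavidin-peroxidase at 80 ng/mL for 1 hour at 4° C, with ABTS colour read-out. IC50 values are averaged over repeated runs.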

[2] = target: human Gal-1 (hGal-1) (Homo sapiens (Human), UniProt P09382); assay: competitive binding assay: biotinylated hGal-1 binding to microplate-adsorbed asialofetuin (ASF); conditions: Table 15; read-out: IC50 (Galectin-1 inhibition)
Chain of human Gal-1 (hGal-1) (P09382 whole entry): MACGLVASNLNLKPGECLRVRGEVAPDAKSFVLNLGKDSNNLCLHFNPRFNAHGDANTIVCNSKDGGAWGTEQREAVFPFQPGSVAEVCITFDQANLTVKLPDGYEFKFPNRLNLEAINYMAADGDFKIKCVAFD
How it was run: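 Spectrophotometric competition readout: after compound and biotinylated hGal-1 (300-1000 ng/mL) sit 3 h at 4° C on adsorbed asialofetuin, streptavidin-peroxidase (1 h, 4° C) and ABTS reveal residual binding. Reported IC50 values are means of repeat runs.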

Chain of human Gal-3 (hGal-3) (P17931 whole entry): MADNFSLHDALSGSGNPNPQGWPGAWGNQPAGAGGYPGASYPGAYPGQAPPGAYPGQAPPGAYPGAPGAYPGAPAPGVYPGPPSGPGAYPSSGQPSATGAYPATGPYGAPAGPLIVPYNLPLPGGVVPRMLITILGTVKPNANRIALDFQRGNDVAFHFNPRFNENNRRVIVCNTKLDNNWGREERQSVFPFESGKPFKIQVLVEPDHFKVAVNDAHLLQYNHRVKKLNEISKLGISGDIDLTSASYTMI

Row | IC50 ([1]; Table 14) [nM] | IC50 [2] [nM] | IC50 ([1]; Table 5) [nM] | Compound | IC50 ([1]; Table 10, 2-OMe-Gal inhibitors) [nM]
1 | 90 | 2430 | – | CO[C@@H]1[C@@H](n2cc(-c3cc(F)c(Cl)c(F)c3)nn2)[C@@H](O)[C@@H](CO)O[C@H]1SC(c1ncccc1C)C1(O)CCC(F)(F)CC1 (stereo partly drawn) [Example 11.44.126.I., (2R,3R,4S,5R,6S)-4-(4-(4-Chloro-3,5-difluorophenyl)-1H-1,2,3-triazol-1-yl)-6-(((4,4-difluoro-1-hydroxycyclohexyl)(3-methylpyridin-2-yl)methyl)thio)-2-(hydroxymethyl)-5-methoxytetrahydro-2H-pyran-3-ol] | –
2 | 190 | 3240 | – | CO[C@@H]1[C@@H](n2cc(-c3ccc(Br)c(F)c3)nn2)[C@@H](O)[C@@H](CO)O[C@H]1SC(c1ncccc1C)C1(O)CCC(F)(F)CC1 (stereo partly drawn) [Example 12.44.126.I., (2R,3R,4S,5R,6S)-4-(4-(4-Bromo-3-fluorophenyl)-1H-1,2,3-triazol-1-yl)-6-(((4,4-difluoro-1-hydroxycyclohexyl)(3-methylpyridin-2-yl)methyl)thio)-2-(hydroxymethyl)-5-methoxytetrahydro-2H-pyran-3-ol] | –
3 | 90 | 730 | – | CO[C@@H]1[C@@H](n2cc(-c3ccc(F)c(F)c3)nn2)[C@@H](O)[C@@H](CO)O[C@H]1SC(c1ncccc1C)C1(O)CCC(F)(F)CC1 (stereo partly drawn) [Example 16.44.126.I., (2R,3R,4S,5R,6S)-6-(((4,4-Difluoro-1-hydroxycyclohexyl)(3-methylpyridin-2-yl)methyl)thio)-4-(4-(3,4-difluorophenyl)-1H-1,2,3-triazol-1-yl)-2-(hydroxymethyl)-5-methoxytetrahydro-2H-pyran-3-ol] | –
4 | 80 | 570 | – | CO[C@@H]1[C@@H](n2cc(-c3ccc(F)c(F)c3)nn2)[C@@H](O)[C@@H](CO)O[C@H]1S[C@H](c1ncccc1C)C1(O)CCC(F)(F)CC1 [Example 16.44.126R.I., (2R,3R,4S,5R,6S)-6-(((R)-(4,4-Difluoro-1-hydroxycyclohexyl)(3-methylpyridin-2-yl)methyl)thio)-4-(4-(3,4-difluorophenyl)-1H-1,2,3-triazol-1-yl)-2-(hydroxymethyl)-5-methoxytetrahydro-2H-pyran-3-ol] | –
5 | 1870 | 54200 | – | CO[C@@H]1[C@@H](n2cc(-c3ccc(F)c(F)c3)nn2)[C@@H](O)[C@@H](CO)O[C@H]1S[C@@H](c1ncccc1C)C1(O)CCC(F)(F)CC1 [Example 16.44.126S.I., (2R,3R,4S,5R,6S)-6-(((S)-(4,4-Difluoro-1-hydroxycyclohexyl)(3-methylpyridin-2-yl)methyl)thio)-4-(4-(3,4-difluorophenyl)-1H-1,2,3-triazol-1-yl)-2-(hydroxymethyl)-5-methoxytetrahydro-2H-pyran-3-ol] | –
6 | 140 | 1680 | – | CO[C@@H]1[C@@H](n2cc(-c3cc(F)c(Cl)c(Cl)c3)nn2)[C@@H](O)[C@@H](CO)O[C@H]1SC(c1ncccc1C)C1(O)CCC(F)(F)CC1 (stereo partly drawn) [Example 17.44.126.I., (2R,3R,4S,5R,6S)-4-(4-(3,4-Dichloro-5-fluorophenyl)-1H-1,2,3-triazol-1-yl)-6-(((4,4-difluoro-1-hydroxycyclohexyl)(3-methylpyridin-2-yl)methyl)thio)-2-(hydroxymethyl)-5-methoxytetrahydro-2H-pyran-3-ol] | –
7 | 120 | 3470 | – | CO[C@@H]1[C@@H](n2cc(-c3cc(F)c(Br)c(F)c3)nn2)[C@@H](O)[C@@H](CO)O[C@H]1SC(c1ncccc1C)C1(O)CCC(F)(F)CC1 (stereo partly drawn) [Example 18.44.126.I., (2R,3R,4S,5R,6S)-4-(4-(4-Bromo-3,5-difluorophenyl)-1H-1,2,3-triazol-1-yl)-6-(((4,4-difluoro-1-hydroxycyclohexyl)(3-methylpyridin-2-yl)methyl)thio)-2-(hydroxymethyl)-5-methoxytetrahydro-2H-pyran-3-ol] | –
8 | 70 | 920 | – | CO[C@@H]1[C@@H](n2cc(-c3ccc(Cl)c(F)c3F)nn2)[C@@H](O)[C@@H](CO)O[C@H]1SC(c1ncccc1C)C1(O)CCC(F)(F)CC1 (stereo partly drawn) [Example 22.44.126.I., (2R,3R,4S,5R,6S)-4-(4-(4-Chloro-2,3-difluorophenyl)-1H-1,2,3-triazol-1-yl)-6-(((4,4-difluoro-1-hydroxycyclohexyl)(3-methylpyridin-2-yl)methyl)thio)-2-(hydroxymethyl)-5-methoxytetrahydro-2H-pyran-3-ol] | –
9 | 50 | 550 | – | CO[C@@H]1[C@@H](n2cc(-c3ccc(C)c(F)c3F)nn2)[C@@H](O)[C@@H](CO)O[C@H]1SC(c1ncccc1C)C1(O)CCC(F)(F)CC1 (stereo partly drawn) [Example 23.44.126.I., (2R,3R,4S,5R,6S)-6-(((4,4-Difluoro-1-hydroxycyclohexyl)(3-methylpyridin-2-yl)methyl)thio)-4-(4-(2,3-difluoro-4-methylphenyl)-1H-1,2,3-triazol-1-yl)-2-(hydroxymethyl)-5-methoxytetrahydro-2H-pyran-3-ol] | –
10 | – | 2350 | 360 | (2S,3R,4S,5R,6R)-2-(((2,3-Dichlorophenyl)(4,4-difluoro-1-hydroxycyclohexyl)methyl)thio)-6-(hydroxymethyl)-4-(4-(3,4,5-trifluorophenyl)-1H-1,2,3-triazol-1-yl)tetrahydro-2H-pyran-3,5-diol [Example 2.44.113.] | –
11 | – | 1730 | 800 | (2S,3R,4S,5R,6R)-2-(((R)-(2,3-Dichlorophenyl)(4,4-difluoro-1-hydroxycyclohexyl)methyl)thio)-6-(hydroxymethyl)-4-(4-(3,4,5-trifluorophenyl)-1H-1,2,3-triazol-1-yl)tetrahydro-2H-pyran-3,5-diol [Example 2.44.113R.] | –

More lines, now with the values behind:

Row | Compound | IC50 ([1]; Table 14) [nM] | IC50 [2] [nM] | IC50 ([1]; Table 5) [nM] | IC50 ([1]; Table 10, 2-OMe-Gal inhibitors) [nM]
12 | (2R,3R,4S,5R,6S)-6-(((R)-(5-Cyclopropyl-3-methylisoxazol-4-yl)(1-hydroxycyclohexyl)methyl)thio)-2-(hydroxymethyl)-5-methoxy-4-(4-(3,4,5-trifluorophenyl)-1H-1,2,3-triazol-1-yl)tetrahydro-2H-pyran-3-ol [Example 2.39.128R.I.] | – | 2360 | – | 300
13 | (2S,3R,4S,5R,6R)-2-(((3,3-Difluoro-1-hydroxycyclobutyl)(3-(trifluoromethyl)pyridin-2-yl)methyl)thio)-6-(hydroxymethyl)-4-(4-(3,4,5-trifluorophenyl)-1H-1,2,3-triazol-1-yl)tetrahydro-2H-pyran-3,5-diol [Example 2.35.125.] | – | 1460 | 320 | –
14 | (2S,3R,4S,5R,6R)-2-(((4-Hydroxy-2,2,6,6-tetramethyltetrahydro-2H-pyran-4-yl)(2-(trifluoromethyl)phenyl)methyl)thio)-6-(hydroxymethyl)-4-(4-(3,4,5-trifluorophenyl)-1H-1,2,3-triazol-1-yl)tetrahydro-2H-pyran-3,5-diol [Example 2.42.102.] | – | 18500 | 380 | –
15 | (2S,3R,4S,5R,6R)-2-(((4-Hydroxy-2,2-dimethyltetrahydro-2H-pyran-4-yl)(2-(trifluoromethyl)phenyl)methyl)thio)-6-(hydroxymethyl)-4-(4-(3,4,5-trifluorophenyl)-1H-1,2,3-triazol-1-yl)tetrahydro-2H-pyran-3,5-diol [Example 2.43.102.] | – | 1900 | 120 | –
16 | (2S,3R,4S,5R,6R)-2-(((R)-(2-Cyclopropylphenyl)(4,4-difluoro-1-hydroxycyclohexyl)methyl)thio)-6-(hydroxymethyl)-4-(4-(3,4,5-trifluorophenyl)-1H-1,2,3-triazol-1-yl)tetrahydro-2H-pyran-3,5-diol [Example 2.44.106R.] | – | 20 | 60 | –
17 | (2S,3R,4S,5R,6R)-2-(((R)-(3,3-Difluoro-1-hydroxycyclobutyl)(3-(trifluoromethyl)pyridin-2-yl)methyl)thio)-6-(hydroxymethyl)-4-(4-(3,4,5-trifluorophenyl)-1H-1,2,3-triazol-1-yl)tetrahydro-2H-pyran-3,5-diol [Example 2.35.125R.] | – | 810 | 100 | –
18 | (2S,3R,4S,5R,6R)-2-(((R)-(4-Hydroxy-2,2,6,6-tetramethyltetrahydro-2H-pyran-4-yl)(2-(trifluoromethyl)phenyl)methyl)thio)-6-(hydroxymethyl)-4-(4-(3,4,5-trifluorophenyl)-1H-1,2,3-triazol-1-yl)tetrahydro-2H-pyran-3,5-diol [Example 2.42.102R.] | – | 6400 | 90 | –
19 | (2S,3R,4S,5R,6R)-2-(((R)-((R)-4-Hydroxy-2,2-dimethyltetrahydro-2H-pyran-4-yl)(2-(trifluoromethyl)phenyl)methyl)thio)-6-(hydroxymethyl)-4-(4-(3,4,5-trifluorophenyl)-1H-1,2,3-triazol-1-yl)tetrahydro-2H-pyran-3,5-diol [Example 2.43.102RR.] | – | 8800 | 290 | –
20 | (2S,3R,4S,5R,6R)-2-(((R)-((R)-4-Hydroxy-2,2-dimethyltetrahydro-2H-pyran-4-yl)(o-tolyl)methyl)thio)-6-(hydroxymethyl)-4-(4-(3,4,5-trifluorophenyl)-1H-1,2,3-triazol-1-yl)tetrahydro-2H-pyran-3,5-diol [Example 2.43.112RR.] | – | 6800 | 1500 | –
21 | (2S,3R,4S,5R,6R)-2-(((R)-((S)-4-Hydroxy-2,2-dimethyltetrahydro-2H-pyran-4-yl)(2-(trifluoromethyl)phenyl)methyl)thio)-6-(hydroxymethyl)-4-(4-(3,4,5-trifluorophenyl)-1H-1,2,3-triazol-1-yl)tetrahydro-2H-pyran-3,5-diol [Example 2.43.102RS.] | – | 800 | 40 | –
